Structures are written as SMILES. Results filed as inconclusive are left out.

For the assay, the system named is Clone20 osteoblast Shn3 3'UTR firefly luciferase, 24 h. In words: Schnurri-3 3'UTR-luciferase signal suppressors – cell-based, Clone20 osteoblasts, luminescence, dry powder, set 2, dose response (AID 743417).
On to `CCc1ccccc1NC(=O)COC(=O)c1c(C)nsc1NC`, for which the AC50 is 2.48 µM.

Consider `O=C(/C=C1\C(=O)Nc2ccccc21)/C=C1\C(=O)Nc2ccccc21`, for which the AC50 was 9.5 µM.

In the case of `COc1cc(NC(=O)COc2cc(O)c3c(c2)OC(C)(C)CC3=O)cc(OC)c1OC`, the AC50 is 0.354 µM.

On to `Cn1nc(CC(=O)Nc2ccc3c(c2)OCCO3)c2ccccc2c1=O`, for which the AC50 is 0.899 µM.

For the compound `COc1ccc(-c2noc(CCCCC(=O)N3CCN(c4cc(C)ccc4C)CC3)n2)cc1`, the AC50 is 1.75 µM.

For the compound `CC(C)(C)NCC(=Cc1ccccc1)C(=O)c1ccccc1`, the AC50 is 4.51 µM.

Take `CN(C)S(=O)(=O)c1cccc(N=c2scc(-c3ccc4c(c3)NC(=O)CO4)n2CC2CCCO2)c1` (centres undefined): the AC50 is 14 µM.

Turning to `C[C@@H]1C[C@@H]2O[C@H]2/C=C\C=C\C(=O)Cc2c(Cl)c(O)cc(O)c2C(=O)O1`, the AC50 is 6.4 µM.

With `CC(=O)NC(c1ccc2ccccc2c1)c1ccc2cccnc2c1O` (centres undefined), the AC50 is 0.422 µM.

As to `CC1(c2ccc3ccccc3c2)NC(=O)N(CC(=O)N2CCN(Cc3ccc(C#N)cc3)CC2)C1=O` (centres undefined), the AC50 is 0.416 µM.

With `CC1=C(C(=O)NC2CCCc3c2cnn3-c2cccc(C)c2C)OCCO1` (centres undefined), the AC50 was 3.49 µM.

For the compound `Cc1ccc(Nc2nc(NCc3ccco3)c3ccccc3n2)cc1`, the AC50 is 9.84 µM.

On to `COc1cc2ccnc(Cc3cccc(OC)c3OC)c2cc1OC`, for which the AC50 is 4.64 µM.

With `Oc1c(CN2CCCCC2)ccc2cccnc12`, the AC50 is 2.11 µM.

As for `O=C(Nc1cc(F)ccc1F)N1CCN(c2ccnc3cc(Cl)ccc23)CC1`, the AC50 is 22.8 µM.

Regarding `CC(C)c1ccc(Oc2cccc3c2S(=O)(=O)N(C2CCCC2)CC(COCc2ccccc2)O3)cc1` (centres undefined), the AC50 was 15.5 µM.

For the compound `O[C@@H]1CN(Cc2ccc(-n3cccn3)cc2)CC[C@H]1N1CCN(c2ccccc2F)CC1`, the AC50 was 2.13 µM.

For the compound `Cc1cccc(CSc2cccc3cccnc23)c1`, the AC50 is 2.54 µM.

Consider `CCn1c(CNC(=O)c2cc(OC)c(OC)c(OC)c2)cc2cc(C)ccc21`, for which the AC50 was 2.52 µM.

For `COc1ccc(C[C@H]2NC[C@H](O)[C@H]2OC(C)=O)cc1`, the AC50 is 0.882 µM.

On to `COc1ccccc1C(=O)Nc1nc2ccccc2[nH]1`, for which the AC50 was 0.868 µM.

In the case of `COc1cccc(C(c2nnnn2-c2ccc3c(c2)OCCO3)N2CCC(n3c(=O)[nH]c4ccccc43)CC2)c1OC` (centres undefined), the AC50 was 3.74 µM.

Turning to `Cc1ccc2nc(NNC(=O)c3ccc(S(=O)(=O)N4CCc5ccccc5C4)cc3)sc2c1`, the AC50 was 1.62 µM.

As to `Cc1nnc(NC(=O)c2nc(S(=O)(=O)Cc3ccccc3C)ncc2Cl)s1`, the AC50 was 0.812 µM.

For the compound `Cc1nc(N2CCN(C(=O)c3ccco3)CC2)c2c3c(sc2n1)CC(C)CC3` (centres undefined), the concentration at half-maximal activity (AC50) was 2.33 µM.

Consider `O=c1c(Br)c(Br)cnn1-c1ccccc1`, for which the AC50 was 1.82 µM.

Take `COc1ccc(CC(N)c2csc(NC(=O)Nc3ccc(C(C)C)cc3)n2)cc1` (centres undefined): the AC50 is 5.16 µM.

With `COc1ccccc1NC(=O)Cn1c(C)cc(=O)c2cccc(OC)c21`, the AC50 is 3.16 µM.

For `CCC1CCCCN1C(=O)c1cc(COc2ccc3ncccc3c2)on1` (centres undefined), the AC50 was 0.46 µM.

In the case of `COc1cc(OC)c(OC)cc1/C=C1\CC(C)C/C(=C\c2cc(OC)c(OC)cc2OC)C1=O` (centres undefined), the AC50 is 3.22 µM.

Consider `Cn1cc([N+](=O)[O-])c(C(=O)Nc2cc(Oc3ccccc3)cc([N+](=O)[O-])c2)n1`, for which the AC50 was 5.41 µM.

`COC(=O)C1=C(c2ccc(F)cc2OCc2ccccc2)C[C@@H]2CC[C@H]1N2C(=O)NCc1ccc(C(F)(F)F)cc1`: the AC50 was 9.14 µM.

Consider `COc1cccc(-c2nc(NC3CCCC3)c3ccccc3n2)c1O`, for which the AC50 was 25 µM.

`CC(=O)c1cccc(-c2csc3ncnc(Sc4nnnn4C)c23)c1`: the AC50 is 4.72 µM.

For `CCC1CN2CCc3cc(OC)c(OC)cc3C2CC1CC1NCCc2c1[nH]c1ccc(O)cc21` (centres undefined), the AC50 is under 0.26 µM.

Regarding `CC(C)[C@H](NC(=O)OC(C)(C)C)c1nnc(S(=O)(=O)Cc2c(F)cccc2Cl)o1`, the AC50 was 1.08 µM.

In the case of `O=C(NNc1ccnc2cc(Cl)ccc12)C1CCCCC1`, the AC50 is under 0.26 µM.

As to `Cc1cccc(C)c1-n1nnnc1C(c1cc2ccccc2o1)N1CCC(n2c(=O)[nH]c3ccccc32)CC1` (centres undefined), the concentration at half-maximal activity (AC50) is 3.05 µM.

With `COc1ccc(Nc2cc(C)nc(NCc3ccccc3)n2)cc1`, the AC50 is 3.9 µM.

Turning to `CCCCC(=O)NC(c1ccc(OC)c(OC)c1)c1ccc2cccnc2c1O` (centres undefined), the AC50 is 1.36 µM.

Consider `CCCCc1ccc(NC(=O)C(=O)NCCN2CCN(Cc3ccc([N+](=O)[O-])cc3)CC2)cc1`, for which the half-maximal activity concentration (AC50) was 1.13 µM.

Consider `Cc1ccc(N/C(N)=N/c2nc(C)cc(N3CCCCC3)n2)c(C)c1`, for which the AC50 is 0.891 µM.

As for `CCN(CC)CCNc1cc(C)nc2c1C(=O)C(=O)C=C2N1CCCCC1`, the AC50 is 6.61 µM.

As for `COc1cc(NC(=O)c2cccc3c(-c4cccnc4)coc23)cc(OC)c1OC`, the AC50 is 0.978 µM.

With `COc1ccc(CNC(=O)c2cc3c(C)nc4ccccc4c3o2)c(OC)c1`, the AC50 was 3.22 µM.

As to `COc1cc(OC)c(OC)cc1CNC(=O)c1cccc(S(=O)(=O)N2CCc3ccccc3C2)c1`, the AC50 is 2.39 µM.

Regarding `COc1ccc(CNCCc2c(C)[nH]c3ccc(OC(F)(F)F)cc23)c(OC)c1`, the AC50 was 0.963 µM.

As to `Cc1c(Cl)sn(-c2ccc(Cl)cc2)c1=O`, the AC50 is 0.728 µM.

As to `CCN(CC)S(=O)(=O)c1ccc(NC(=O)Nc2cccc(C(F)(F)F)c2)cc1`, the AC50 was 5.6 µM.

In the case of `Cc1cc(C(=O)NC2CCCc3c2cnn3-c2ccc(C)c(C)c2)n(C)n1` (centres undefined), the AC50 is under 0.26 µM.

As for `O=C(NCc1cccnc1)/C(=C\c1ccc(-c2ccc(Br)cc2)o1)S(=O)(=O)c1ccccc1`, the AC50 is 6.33 µM.

For the compound `COc1ccc(CNc2ncnc3sccc23)cc1OC`, the AC50 was 2.34 µM.

As to `O=C(Nc1ccc(F)cc1)c1nc(S(=O)(=O)Cc2ccccc2)ncc1Cl`, the AC50 is 3.38 µM.

With `c1ccc(CN=C(NCc2ccccc2)NCc2ccccc2)cc1`, the AC50 was 1.79 µM.

For `Cc1c(CCOC(=O)C23CC4(C)CC(C)(CC(C)(C4)C2)C3)sc[n+]1CC(=O)c1ccccc1`, the AC50 is 5.84 µM.

In the case of `CC(C)(C)C(=O)Nc1cc2nn(-c3ccccc3)nc2cc1Cl`, the AC50 is 5.16 µM.

In the case of `Cc1ccc(CS(=O)(=O)c2ncc(Cl)c(C(=O)Nc3nnc(C)s3)n2)cc1`, the AC50 was 0.639 µM.

With `O=C(c1ccc(Cn2c(=S)[nH]c3ccccc3c2=O)cc1)N1CCN(c2ccccn2)CC1`, the AC50 was 6.34 µM.

In the case of `Nc1nc(Cl)cc(N2CCC(c3cc(-c4ccc(Cl)cc4Cl)n[nH]3)CC2)n1`, the AC50 is 4.94 µM.

With `CCCC(=O)NC(c1ccccc1Cl)c1ccc2cccnc2c1O` (centres undefined), the AC50 is 1.21 µM.

Regarding `COc1ccccc1-c1cc(C(F)(F)F)nc(S(=O)(=O)CCCC(=O)N2CCOCC2)n1`, the AC50 is 3.02 µM.

As to `CCCCCCN1C[C@H](n2cc(-c3ccc(F)cc3)nn2)[C@@H](O)C[C@@H]1c1ccc(Cl)cc1`, the AC50 is 10.3 µM.

Turning to `O=C(Nc1nc(-c2ccccn2)cs1)c1cccc(S(=O)(=O)N2CCOCC2)c1`, the AC50 was 1.52 µM.

Consider `COc1cc(Nc2nc(-c3ccccc3)c3cc(C)ccc3n2)cc(OC)c1OC`, for which the AC50 was 6.55 µM.

Take `Cc1ccc(-n2nnnc2C(Cl)(Cl)c2nnnn2-c2ccc(C)cc2)cc1`: the AC50 was 4.71 µM.

`Cn1nc(-c2ccc(Cl)cc2)c2cc(C(=O)N3CCN(c4ccccn4)CC3)sc21`: the half-maximal activity concentration (AC50) was 4.02 µM.

As to `Oc1cc(-c2ccncc2)cc2cccnc12`, the AC50 is 5.4 µM.

Consider `Cc1cccc(CS(=O)(=O)c2ncc(Cl)c(C(=O)NCc3ccccc3)n2)c1`, for which the AC50 is 2.94 µM.

For `CC(C)Cc1ccc(C(C)C(=O)Nc2ccccc2O)cc1` (centres undefined), the AC50 was 1.89 µM.

As for `COc1ccc(Cc2nccc3cc(OC)c(OC)cc23)cc1OC`, the concentration at half-maximal activity (AC50) was 2.48 µM.

With `CC(C)(C)c1cc(C(c2cccnc2)N2CCN(CCO)CC2)cc(C(C)(C)C)c1O` (centres undefined), the AC50 was 1.7 µM.

Take `COc1cccc(CNCCc2c[nH]c3ccccc23)c1OCc1ccccc1`: the AC50 is 4.09 µM.

Turning to `COc1ccc(Oc2cc(NC(=O)c3nn(C)cc3[N+](=O)[O-])cc([N+](=O)[O-])c2)cc1`, the AC50 is 0.813 µM.

As to `O=[N+]([O-])c1cc(CN2CCN(c3ccccc3)CC2)c(O)c2ncccc12`, the AC50 is 1.99 µM.

`C=C1CC(COc2cc(=O)oc3ccccc23)(c2ccccc2)OC1=O` (centres undefined): the AC50 is 3.93 µM.

In the case of `CCOc1cc(/C=C2\C(=O)ON=C2C)ccc1OCc1ccccc1`, the half-maximal activity concentration (AC50) is 10.4 µM.

As to `CCN(CC)C(=S)Sc1c(-c2ccccc2)c2cc(Cl)ccc2[nH]c1=O`, the AC50 was 27 µM.

`CCCc1nnc(NC(=O)c2nc(S(=O)(=O)Cc3cccc(C)c3)ncc2Cl)s1`: the AC50 is 2.55 µM.

With `CCOC(=O)COc1ccc2ccccc2c1/C=C/[N+](=O)[O-]`, the half-maximal activity concentration (AC50) was 5.2 µM.

Turning to `Cc1ccc(-n2cc(CNCCCn3ccnc3C)c(-c3ccc(F)cc3)n2)cc1`, the AC50 was 20.6 µM.

As for `COc1ccc(-n2nnnc2-c2cnc(N3CCCC3)nc2C(F)(F)F)cc1`, the AC50 is 4.75 µM.

As to `Cc1ccc(S(=O)(=O)c2ncccc2[N+](=O)[O-])cc1`, the AC50 was 1.91 µM.

As to `CS(=O)(=O)c1ccc(Sc2nc3ccccc3s2)c([N+](=O)[O-])c1`, the concentration at half-maximal activity (AC50) is 9.73 µM.

Turning to `CN(CC(=O)Nc1ccccc1Cl)C(=O)c1cccc(S(=O)(=O)N2CCN(c3ccc(F)cc3)CC2)c1`, the AC50 is 3.62 µM.

As for `COc1cc(C)c(NC(=O)COc2cccc3c2OC(C)(C)C3)cc1OC`, the AC50 is 7.06 µM.

Regarding `CCCCCCCN(c1ccccc1)[C@@H]1C[C@H]2CCCC(=O)N3CC[C@@H](C1)[C@@H]23`, the AC50 is 11.5 µM.

With `CCOc1ccc(-c2nnc(N3CCCCC3)c3ccccc23)cc1`, the AC50 was 14.9 µM.

Regarding `CC1CC(C)(C)CC2(C1)NC(=O)N(CC(=O)N1CCN(Cc3ccc(C#N)cc3)CC1)C2=O` (centres undefined), the AC50 is 1.47 µM.

`CCOC(=O)c1nc(S(C)(=O)=O)ncc1Cl`: the AC50 is 6.37 µM.

Take `COc1ccc(-c2cc(N)n(S(=O)(=O)c3c(F)c(F)c(F)c(F)c3F)n2)cc1OC`: the AC50 is 0.896 µM.

As for `CC1=NOC(=O)/C1=C\c1ccc(-c2cc(Cl)ccc2Cl)o1`, the half-maximal activity concentration (AC50) was 5.69 µM.

In the case of `c1ccc(Nc2nc(NCC3CCCO3)c3ccccc3n2)cc1` (centres undefined), the AC50 was 21.7 µM.

For `CC(C)(C)C(=O)Nc1cc(S(=O)(=O)N2CCCCC2)ccc1N1CCCCC1`, the AC50 is 23.1 µM.

On to `Cc1ccccc1CS(=O)(=O)c1ncc(Cl)c(C(=O)Nc2ccc(F)cc2)n1`, for which the AC50 was 3 µM.
